Laboratory results reported in patent US20090209605A1, “NEMATICIDAL COMPOSITIONS” (Devgen N.V., priority 2004, published 2009).

Key:
Type in all cases: in vivo
Meloidogyne incognita = assay: Root infestation on agar plate: root knot count on potato microplant roots; settings: 60 μM in agar, galls counted 5 weeks after inoculation, four replicates
Procedure: 9 cm petri dishes were filled with a 15 ml agar. One stem cutting of a potato microplant (Solanum tuberosum cv. Desirée) was placed on top of the agar layer. After 2 to 3 weeks of incubation at 20° C., the root system was sufficiently developed to be inoculated.
The test compounds (see Table 1) were added 2 days before inoculation by way of spreading a 2 ml DMSO-solution with the compound over the agar and allowing the compound to diffuse in the agar during two days at constant temperature of 20° C. During incubation, the plates are protected from light in a dark incubator. The resulting concentration of each compound in each agar plate was 60 μM.
After incubation, approximately 400 axenic juveniles of Meloidogyne incognita species were added to the plate.
The plates were incubated in the dark at a constant temperature of 20° C. and 5 weeks after inoculation the number of galls formed on the roots were determined by counting. Also any toxic effect of the test compounds on the roots was recorded. 8 weeks after inoculation the plates were stored at low temperature.
Each compound was tested in four replicates. Positive controls were treated with different concentrations of Aldicarb, a known nematicide. Negative controls included 5 replicates of double negative controls (no compound, no nematode), 5 replicates of single negative controls (no compound, with nematode) and 5 replicates of DMSO controls (DMSO solution, with nematode).

Meloidogyne nematodes = assay: Pot Assay 2: Meloidogyne infection of tomato, % infestation of roots; settings: for % INF. (% Infestation): tomato in infested soil
Procedure: The soil used in this assay originated from a plot, heavily infested with Meloidogyne nematodes. Part of this soil was sterilized by autoclaving and was used as negative control. Sandy soil, which was not infested with nematodes, was pursued from a commercial source.
Plastic seedling trays with wells of 60 ml capacity were filled with about 40 ml of soil per well. 5 ml of water per well was used for irrigation.
Compounds as described herein were tested in 4 different rates and with 12 replicates for each concentration. The compounds as described herein were stored as dry films of 4 different concentrations. The day of the application of the compounds, all the dry films were dissolved in 60 ml water and poured into the 12 replicate wells: 5 ml per well. Every tray of 12 wells was identified with a label, indicating compound and concentration used. The 4 final rates in the soil of the tested compound were approximately 0.05 mg, 0.20 mg, 1 mg and 5 mg. These amounts translate to field application rates respectively as 30, 120, 600 and 3000 g per hectare.
3-5 days after application of the tested compound, tomato seeds (cv. Rio Grande) were sown in the wells by hand, at about 2 cm deep. A light cover of vermiculite on the surface was used to avoid dehydration. Plants were irrigated by micro-nebulization 3-4 times per week at a rate of 3 L/m^2, weeded by hand and treated with fertilizers, fungicide and insecticides when needed.
Their resistance against nematode infection was monitored and the efficacy of compounds described herein as a nematicide was measured. Furthermore the phytotoxicity of the test compounds was evaluated.
Efficacy of the compounds described herein as nematicide was measured by giving the roots a percentage of infestation measured as follows. Plants were grown to reach good development of the roots, which corresponds to plants grown to about 10 cm high at about one month after emergence. After removal of the soil from the roots by rinsing with water, the roots were visually inspected and root galls were counted on 4 plants of the set of 12 replicate plants.
Positive control plants were treated with a 10 micromolar concentration of oxamyl (Vydate, 10% SL; the rate of 10 micromolar corresponds to a commercial rate of 20 l/ha), a known nematicide. Negative controls involved double negative controls (no compound, sterile soil), and single negative controls (no compound, with nematode infested soil).

tomato (cv. Rio Grande) = assay: Pot Assay 2: root development (vigor of roots) of tomato; settings: for ROOT DEV.: visual value 0 to 10 (10 equal to control)
Procedure: Phytotoxicity of compounds as described herein when used as a nematicide, was measured as follows. […] At that moment, plant emergence was assessed for the plants treated with any of the compounds as described herein, by counting the number of plants per compound-concentration.
Vigor of roots was also assessed once the plants are well established so as not to loose plants. To assess vigor of the plants or roots, a visual value ranging from 0 to 10 (0 no vigor, 10 equal to control) was scored per compound-concentration.

[1] = test system: Meloidogyne incognita nematodes; assay: Pot Assay 1: Meloidogyne infection of potato, egg masses/galls on roots; settings: for number of egg masses (galls) on roots, Replicate 3 / number of egg masses (galls) on roots, Replicate 1 / number of egg masses (galls) on roots, Replicate 2: potato in pot, week 8 after inoculation
Procedure: 500 ml clay pots were filled with 400 ml of silver sand. One tuber of potato ( Solanum tuberosum cv. Bintje) was planted in the sand. After 2 to 3 weeks incubation, the potato plant was sufficiently developed to be inoculated.
Plants were grown under the usual standard greenhouse conditions at 14° C.-18° C., with 16 hours light and 8 hours dark and 80-90% relative humidity. The pots were watered using individual drippers and fertilizers were added under the form of macro- and micro nutrients according to plant growth requirements. When needed, the plants were sprayed with fungicides and insecticides.
The compounds as described herein were added one day before inoculation. The compounds were dissolved in a 20 ml DMSO-solution and spread over the sand surface. The final concentration is calculated under the assumption that the compound is diffused entirely in the pot. This process occurred during two days at the normal greenhouse conditions described above.
After compound incubation, approximately 1500 juveniles of Meloidogyne incognita nematodes were added to the pots.
The pots were incubated at the described greenhouse conditions until nematode development was completed. At week 8 after inoculation the number of galls formed on the roots was counted after washing off the sandy substrate. Also the effect of the compound on the plant development was recorded.
Every compound was tested in three replicates. Positive control plants were treated with different concentrations of aldicarb, a known nematicide. Negative controls involved 12 replicates of double negative controls (no compound, no nematode), 12 replicates of single negative controls (no compound, no DMSO, with nematode), 24 replicates of DMSO controls (DMSO solution, with nematode).
As assessment of the root development was taken into account.

[2] = reference, 10 micromolar (Vydate, 10% SL)
[3] = highest concentration of the reference compound

Structure (SMILES) | Root knot count, average of the replicate counts (Meloidogyne incognita) | % INF. (% Infestation) (Meloidogyne nematodes; RATE 0.05 mg) [%] | % INF. (% Infestation) (Meloidogyne nematodes; RATE 0.2 mg) [%] | ROOT DEV. (tomato (cv. Rio Grande); RATE 0.05 mg) | ROOT DEV. (tomato (cv. Rio Grande); RATE 0.2 mg) | % INF. (% Infestation) (Meloidogyne nematodes; RATE 1 mg) [%] | ROOT DEV. (tomato (cv. Rio Grande); RATE 1 mg) | other results
C#CCOC(=O)/C=C(C)/C=C/CC(C)CCCC(C)C (stereo not shown) [XXVIII] | 8.5 | 2.5 | 1.3 | 7.4 | 7.8 | – | – | –
CC(C)(C)C(O)C(Oc1ccc(-c2ccccc2)cc1)n1cncn1 (stereo not shown) [XLVIII] | 12.75 | 0.0 | 1.3 | 7.5 | 7.4 | 3.8 | 7.2 | % INF. (% Infestation) (Meloidogyne nematodes; RATE 5 mg): 1.3%; ROOT DEV. (tomato (cv. Rio Grande); RATE 5 mg): 7.8
CNC(=O)O/N=C(\SC)C(=O)N(C)C [Oxamyl, reference compound] | – | – | – | – | – | 13.8 | 7.5 | percentage of infestation (Meloidogyne nematodes; [2]): 13.8%; root development (tomato (cv. Rio Grande); [2]): 7.5
O=C(NC(=O)c1c(F)cccc1F)Nc1cc(Cl)c(Oc2ncc(C(F)(F)F)cc2Cl)c(Cl)c1 [LI] | 17.5 | – | – | – | – | – | – | –
COc1ccc(/C(=C/C(=O)N2CCOCC2)c2ccc(Cl)cc2)cc1OC [X] | 10.5 | 5.0 | 1.3 | 6.8 | 7.9 | – | – | –
N#Cc1c(Cl)c(Cl)c(Cl)c(C#N)c1Cl [IV] | 11.5 | – | – | – | – | – | – | –
CNC(=O)O/N=C/C(C)(C)SC [Aldicarb, reference compound] | – | – | – | – | – | – | – | egg mass development (number of egg masses) [1, 3]: 41; reduction of the egg mass development, fraction of control [1, 3]: about ⅓; effect on the nematode development ([1]; three lowest concentrations of the reference compound): no effect
CCNC(=O)NC(=O)C(C#N)=NOC [LII] | 15.5 | – | – | – | – | – | – | –
CC(C)(C)N(NC(=O)c1ccc(Cl)cc1)C(=O)c1ccccc1 [XIX] | 10.75 | – | – | – | – | – | – | number of egg masses (galls) on roots, Replicate 3 ([1]; 10 μM): 80; number of egg masses (galls) on roots, Replicate 1 ([1]; 50 μM): 60; number of egg masses (galls) on roots, Replicate 2 ([1]; 50 μM): 45; number of egg masses (galls) on roots, Replicate 3 ([1]; 50 μM): 20
CCc1nn(C)c(C(=O)NCc2ccc(C(C)(C)C)cc2)c1Cl [XXXVIII] | 16.5 | – | – | – | – | – | – | number of egg masses (galls) on roots, Replicate 1 ([1]; 50 μM): 40; number of egg masses (galls) on roots, Replicate 2 ([1]; 50 μM): 70; number of egg masses (galls) on roots, Replicate 3 ([1]; 50 μM): 1
CC(C)=CC1C(C(=O)OCc2coc(Cc3ccccc3)c2)C1(C)C (mixture of isomers) [LVII] | 8.5 | – | – | – | – | – | – | –
CC(C)N(C(=O)COc1nnc(C(F)(F)F)s1)c1ccc(F)cc1 [XIII] | 9.5 | – | – | – | – | – | – | number of egg masses (galls) on roots, Replicate 3 ([1]; 10 μM): 40; number of egg masses (galls) on roots, Replicate 1 ([1]; 50 μM): 60; number of egg masses (galls) on roots, Replicate 3 ([1]; 50 μM): 30
Cc1cccc(C)c1N(C(=O)CCl)C1CCOC1=O (stereo not shown) [LIV] | 14.5 | 5.0 | 5.0 | 7.5 | 7.2 | 3.8 | 7.6 | % INF. (% Infestation) (Meloidogyne nematodes; RATE 5 mg): 2.5%; ROOT DEV. (tomato (cv. Rio Grande); RATE 5 mg): 6.6
Cc1c(F)c(F)c(COC(=O)C2C(C=C(Cl)C(F)(F)F)C2(C)C)c(F)c1F (racemic) [LVIII] | 18.25 | – | – | – | – | – | – | number of egg masses (galls) on roots, Replicate 1 ([1]; 50 μM): 60; number of egg masses (galls) on roots, Replicate 2 ([1]; 50 μM): 100; number of egg masses (galls) on roots, Replicate 3 ([1]; 50 μM): 30
CCOc1ccc([Si](C)(C)CCCc2ccc(F)c(Oc3ccccc3)c2)cc1 [XXXIII] | 17.5 | – | – | – | – | – | – | –
Cc1cc(C)nc(Nc2ccccc2)n1 [XLVI] | 18.25 | – | – | – | – | – | – | –
CCC(N)P(=O)(O)O (stereo not shown) [II] | 6.5 | 0.0 | 0.0 | 6.7 | 7.3 | 0.0 | 7.3 | % INF. (% Infestation) (Meloidogyne nematodes; RATE 5 mg): 0.0%; ROOT DEV. (tomato (cv. Rio Grande); RATE 5 mg): 7.9
Nc1nc(N)nc(NC2CC2)n1 [XLV] | 19.5 | – | – | – | – | – | – | –
CCN(Cc1ccc(Cl)nc1)/C(=C/[N+](=O)[O-])NC [XXIX] | 17.5 | 3.8 | 1.3 | 7.9 | 7.7 | 2.5 | 7.5 | number of egg masses (galls) on roots, Replicate 1 ([1]; 50 μM): 50; number of egg masses (galls) on roots, Replicate 2 ([1]; 50 μM): 40; number of egg masses (galls) on roots, Replicate 3 ([1]; 50 μM): 40; % INF. (% Infestation) (Meloidogyne nematodes; RATE 5 mg): 5.0%; ROOT DEV. (tomato (cv. Rio Grande); RATE 5 mg): 6.6
O=[N+]([O-])N=C1NCCN1Cc1ccc(Cl)nc1 [XXII] | 12 | – | – | – | – | – | – | –
CNC1=C(c2cccc(C(F)(F)F)c2)C(=O)C(c2ccccc2)O1 (racemic) [XV] | 18 | – | – | – | – | – | – | –
COCC(=O)N(c1c(C)cccc1C)N1CCOC1=O [LV] | 17.75 | – | – | – | – | – | – | –
Clc1nc(Cl)nc(Nc2ccccc2Cl)n1 [XLII] | 17.25 | 3.8 | 0.0 | 6.8 | 6.9 | 0.0 | 8.2 | % INF. (% Infestation) (Meloidogyne nematodes; RATE 5 mg): 0.0%; ROOT DEV. (tomato (cv. Rio Grande); RATE 5 mg): 8.1
CS(=O)(=O)c1cc(C(F)(F)F)ccc1C(=O)c1cnoc1C1CC1 [XXVI] | 8.75 | 1.3 | 3.8 | 7.4 | 6.6 | 0.0 | 7.8 | –
CC(C)=CC1C(C(=O)OCN2C(=O)C3=C(CCCC3)C2=O)C1(C)C (mixture of isomers) [LIX] | 19 | – | – | – | – | – | – | –
CCCCOCCOCCOCc1cc2c(cc1CCC)OCO2 [XXXII] | 19.25 | 0.0 | 0.0 | 6.5 | 7.6 | 1.3 | 7.6 | % INF. (% Infestation) (Meloidogyne nematodes; RATE 5 mg): 2.5%; ROOT DEV. (tomato (cv. Rio Grande); RATE 5 mg): 6.7
